# Data from ChEMBL document CHEMBL1136560, “1,4-Diazepane-2-ones as novel inhibitors of LFA-1” (Bioorg Med Chem Lett, 2003).
# Molecular target: Intercellular adhesion molecule (ICAM-1), Integrin alpha-L/beta-2 (Homo sapiens, UniProt P05107+P20701)
# Test: Inhibition of LFA-1/ICAM-1 interaction in ELISA
# Type: protein-complex assay
# Chain of Intercellular adhesion molecule (ICAM-1), Integrin alpha-L/beta-2 (P20701 whole entry): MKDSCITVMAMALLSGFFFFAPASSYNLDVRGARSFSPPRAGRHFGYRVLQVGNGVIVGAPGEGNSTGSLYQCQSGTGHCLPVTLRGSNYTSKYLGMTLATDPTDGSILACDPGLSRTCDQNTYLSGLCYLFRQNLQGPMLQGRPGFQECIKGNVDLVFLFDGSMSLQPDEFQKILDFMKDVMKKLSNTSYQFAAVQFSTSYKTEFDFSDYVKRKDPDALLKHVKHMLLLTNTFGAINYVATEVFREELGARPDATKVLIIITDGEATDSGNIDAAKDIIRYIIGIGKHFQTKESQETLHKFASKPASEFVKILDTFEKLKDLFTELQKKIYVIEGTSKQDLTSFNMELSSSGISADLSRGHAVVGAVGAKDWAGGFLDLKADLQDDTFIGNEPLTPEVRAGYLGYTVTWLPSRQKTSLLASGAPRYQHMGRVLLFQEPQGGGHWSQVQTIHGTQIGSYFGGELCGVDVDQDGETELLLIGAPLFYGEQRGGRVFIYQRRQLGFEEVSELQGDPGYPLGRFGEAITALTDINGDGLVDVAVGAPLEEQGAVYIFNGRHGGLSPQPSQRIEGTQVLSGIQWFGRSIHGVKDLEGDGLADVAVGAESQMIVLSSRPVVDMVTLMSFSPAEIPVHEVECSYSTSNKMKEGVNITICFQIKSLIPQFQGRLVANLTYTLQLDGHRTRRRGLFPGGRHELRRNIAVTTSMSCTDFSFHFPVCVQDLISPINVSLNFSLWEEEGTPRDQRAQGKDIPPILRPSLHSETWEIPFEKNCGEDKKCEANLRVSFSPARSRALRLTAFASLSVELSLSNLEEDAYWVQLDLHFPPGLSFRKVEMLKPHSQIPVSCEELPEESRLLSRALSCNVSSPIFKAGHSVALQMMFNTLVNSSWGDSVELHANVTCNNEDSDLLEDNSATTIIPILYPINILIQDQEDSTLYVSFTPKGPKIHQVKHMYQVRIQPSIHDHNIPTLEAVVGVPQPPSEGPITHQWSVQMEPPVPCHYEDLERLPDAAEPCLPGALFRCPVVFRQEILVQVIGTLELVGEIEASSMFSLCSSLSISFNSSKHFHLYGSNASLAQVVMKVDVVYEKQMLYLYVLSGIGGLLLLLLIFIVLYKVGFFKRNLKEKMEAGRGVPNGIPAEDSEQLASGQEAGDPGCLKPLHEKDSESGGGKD
# Chain of Intercellular adhesion molecule (ICAM-1), Integrin alpha-L/beta-2 (P05362 whole entry, further chain): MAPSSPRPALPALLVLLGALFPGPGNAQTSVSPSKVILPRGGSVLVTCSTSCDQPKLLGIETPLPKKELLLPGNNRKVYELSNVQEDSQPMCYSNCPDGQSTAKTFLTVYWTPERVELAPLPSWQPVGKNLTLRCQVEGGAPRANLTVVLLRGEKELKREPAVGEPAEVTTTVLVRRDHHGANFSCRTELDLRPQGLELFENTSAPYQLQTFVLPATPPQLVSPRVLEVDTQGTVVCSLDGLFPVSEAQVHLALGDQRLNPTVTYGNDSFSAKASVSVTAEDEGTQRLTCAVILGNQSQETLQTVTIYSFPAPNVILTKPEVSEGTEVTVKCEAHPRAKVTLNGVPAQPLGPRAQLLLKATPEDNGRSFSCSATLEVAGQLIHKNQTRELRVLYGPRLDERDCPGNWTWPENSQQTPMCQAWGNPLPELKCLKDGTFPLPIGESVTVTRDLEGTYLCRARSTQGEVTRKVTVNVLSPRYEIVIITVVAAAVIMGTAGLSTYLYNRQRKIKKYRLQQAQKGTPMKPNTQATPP
# Chain of Intercellular adhesion molecule (ICAM-1), Integrin alpha-L/beta-2 (P05107 whole entry): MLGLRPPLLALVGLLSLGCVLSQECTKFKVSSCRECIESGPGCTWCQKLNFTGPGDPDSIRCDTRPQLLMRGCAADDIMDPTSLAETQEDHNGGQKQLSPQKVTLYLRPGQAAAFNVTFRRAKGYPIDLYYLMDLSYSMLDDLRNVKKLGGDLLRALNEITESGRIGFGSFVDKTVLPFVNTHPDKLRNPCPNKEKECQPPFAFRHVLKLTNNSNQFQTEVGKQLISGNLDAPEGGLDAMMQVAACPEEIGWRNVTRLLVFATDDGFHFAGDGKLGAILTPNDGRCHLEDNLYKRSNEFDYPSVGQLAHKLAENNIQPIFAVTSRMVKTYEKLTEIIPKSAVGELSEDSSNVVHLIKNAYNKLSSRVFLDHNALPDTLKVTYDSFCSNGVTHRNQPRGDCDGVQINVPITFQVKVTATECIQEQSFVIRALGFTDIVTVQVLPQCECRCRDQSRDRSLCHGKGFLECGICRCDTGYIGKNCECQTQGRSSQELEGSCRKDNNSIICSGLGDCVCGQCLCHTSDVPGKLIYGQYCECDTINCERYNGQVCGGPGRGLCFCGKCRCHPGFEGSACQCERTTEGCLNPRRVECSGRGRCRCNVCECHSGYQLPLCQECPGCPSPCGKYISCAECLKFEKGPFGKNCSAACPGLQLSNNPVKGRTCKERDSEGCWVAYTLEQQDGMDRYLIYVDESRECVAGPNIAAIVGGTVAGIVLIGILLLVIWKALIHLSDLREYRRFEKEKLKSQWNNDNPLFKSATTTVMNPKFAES
row,Structure (SMILES),IC50
1,CC(C)C[C@H]1C(=O)N([C@@H](Cc2ccc3ccccc3c2)C(N)=O)CC[C@@H](C)N1C(=O)Cc1ccccc1,750 nM
2,CC(C)C[C@H]1C(=O)N([C@@H](Cc2ccc3ccccc3c2)C(N)=O)CC[C@@H](C)N1C(=O)Cc1ccc2ccccc2c1,2000 nM
3,COC(=O)[C@H](Cc1ccc2ccccc2c1)N1CC[C@@H](C)N(C(=O)Cc2ccc3ncccc3c2)[C@@H](CC(C)C)C1=O,2600 nM
4,CC(C)C[C@H]1C(=O)N([C@@H](Cc2ccc3ccccc3c2)C(N)=O)CC[C@@H](C)N1C(=O)Cc1ccncc1,970 nM
5,CC(C)C[C@H]1C(=O)N([C@@H](Cc2ccc3ccccc3c2)C(=O)O)CC[C@@H](C)N1C(=O)Cc1ccc2ccccc2c1,> 20000 nM
6,CC(C)C[C@H]1C(=O)N([C@H](C(N)=O)c2ccc3ccccc3c2)CCC(C)N1C(=O)Cc1ccc2ccccc2c1 (some centres not stated),> 20000 nM
7,CC(C)C[C@H]1C(=O)N([C@@H](Cc2ccc3ccccc3c2)C(N)=O)CC[C@@H](C)N1C(=O)Cc1ccc(Br)cc1,1300 nM
